Test results from PMC3791137 (Journal of the American Chemical Society, 2013).

How the values were obtained:
[1] = common buffers, physiological pH; cited from earlier work
NSCs = assay: Sin-1-induced ZBR1 fluorescence change; format: cell-based, rat; conditions: 100 μM Sin-1, first 15 min; vehicle 105 ± 7%
[2] = pH 9.5, excitation 572 nm; cited from earlier work

Structure (SMILES) | Half-life [1] [min] | Fluorescence intensity of ZBR1 after Sin-1 (NSCs) [%] | Quantum yield (standard) [2]
N=c1c[n+](N2CCOCC2)[n-]o1 [Sin-1, 3-morpholinosydnonimine] | 14 to 26 | 89 ± 4 | –
O=c1ccc2nc3ccc(O)cc3oc-2c1 [resorufin] | – | – | 0.74
